Measured values: PubChem BioAssay AID2060617 (Molecular Pharmacology Branch, DTP, NCI, 2025)
pIC50: −log10 of the molar value. Several values for one entry are separate records, joined by “and”; a condition that tells them apart may be missing. Equal values may be shown once.

System: 485368-065-R4-J2-PDC spheroids with HUVEC/MSC, viability
Assay: Anticancer human tumor 485368-065-R4-J2-PDC patient-derived pancreatic carcinoma cell line growth inhibition [CLK]
Details: for viability, T/C: stronger effect = lower value
In short: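 Multi-cell-type spheroids combined patient-derived tumor cells with HUVEC endothelial cells and human mesenchymal stem cells. Paired agents were dosed in half-log steps down from about clinical Cmax, or from 10 microM where Cmax was unknown.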

[1] = curve of first compound, second compound 0.0316 µM
[2] = curve of first compound, second compound 0.1 µM
[3] = curve of first compound, second compound 0.316 µM
[4] = curve of first compound, second compound 1 µM
[5] = curve of first compound, second compound 3.16 µM
[6] = curve of first compound, second compound 10 µM
[7] = second compound 0.0316 µM, first compound 0.000949 µM
[8] = second compound 0.0316 µM, first compound 0.003 µM
[9] = second compound 0.0316 µM, first compound 0.00949 µM
[10] = second compound 0.0316 µM, first compound 0.03 µM
[11] = second compound 0.0316 µM, first compound 0.0949 µM
[12] = second compound 0.0316 µM, first compound 0.3 µM
[13] = second compound 0.1 µM, first compound 0.000949 µM
[14] = second compound 0.1 µM, first compound 0.003 µM
[15] = second compound 0.1 µM, first compound 0.00949 µM
[16] = second compound 0.1 µM, first compound 0.03 µM
[17] = second compound 0.1 µM, first compound 0.0949 µM
[18] = second compound 0.1 µM, first compound 0.3 µM
[19] = second compound 0.316 µM, first compound 0.000949 µM
[20] = second compound 0.316 µM, first compound 0.003 µM
[21] = second compound 0.316 µM, first compound 0.00949 µM
[22] = second compound 0.316 µM, first compound 0.03 µM
[23] = second compound 0.316 µM, first compound 0.0949 µM
[24] = second compound 0.316 µM, first compound 0.3 µM
[25] = second compound 1 µM, first compound 0.000949 µM
[26] = second compound 1 µM, first compound 0.003 µM
[27] = second compound 1 µM, first compound 0.00949 µM
[28] = second compound 1 µM, first compound 0.03 µM
[29] = second compound 1 µM, first compound 0.0949 µM
[30] = second compound 1 µM, first compound 0.3 µM
[31] = second compound 3.16 µM, first compound 0.000949 µM
[32] = second compound 3.16 µM, first compound 0.003 µM
[33] = second compound 3.16 µM, first compound 0.00949 µM
[34] = second compound 3.16 µM, first compound 0.03 µM
[35] = second compound 3.16 µM, first compound 0.0949 µM
[36] = second compound 3.16 µM, first compound 0.3 µM
[37] = second compound 10 µM, first compound 0.000949 µM
[38] = second compound 10 µM, first compound 0.003 µM
[39] = second compound 10 µM, first compound 0.00949 µM
[40] = second compound 10 µM, first compound 0.03 µM
[41] = second compound 10 µM, first compound 0.0949 µM
[42] = second compound 10 µM, first compound 0.3 µM
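Note: spheroids exposed to compounds for seven days.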
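Throughout, for viability, T/C: 100% = DMSO vehicle control wells.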

COc1ccc([C@@H](O)c2cc(-c3ncnc4cc(N5CCOCC5)ccc34)c(F)cc2Cl)nn1
viability, T/C (compound 0.0316 µM): 97% and 105% | viability, T/C (compound 0.1 µM): 94.9% and 95.8% | viability, T/C (compound 0.316 µM): 103% and 96.8% | viability, T/C (compound 1 µM): 105% and 114% | viability, T/C (compound 3.16 µM): 104% and 102% | viability, T/C (compound 10 µM): 82.6% and 77.8% | pIC50 (curve of compound): < 5.00

C=CC(=O)Nc1cc(Nc2nccc(-c3cn(C)c4ccccc34)n2)c(OC)cc1N(C)CCN(C)C + CNC(=O)c1ccc(Nc2nc(OC3CCCC3)c3c(-c4ccc5nc(C)oc5c4)c[nH]c3n2)c(OC)c1
pIC50 [1]: < 6.52 | pIC50 [2]: < 6.52 | pIC50 [3]: < 6.52 | pIC50 [4]: < 6.52 | pIC50 [5]: < 6.52 | pIC50 [6]: < 6.52 | viability, T/C [7]: 84.6% | viability, T/C [8]: 90% | viability, T/C [9]: 88.8% | viability, T/C [10]: 93.4% | viability, T/C [11]: 101% | viability, T/C [12]: 87.4% | viability, T/C [13]: 90.1% | viability, T/C [14]: 89% | viability, T/C [15]: 95.6% | viability, T/C [16]: 90.1% | viability, T/C [17]: 92.2% | viability, T/C [18]: 98.4% | viability, T/C [19]: 82% | viability, T/C [20]: 85.1% | viability, T/C [21]: 81.6% | viability, T/C [22]: 79.5% | viability, T/C [23]: 83% | viability, T/C [24]: 78% | viability, T/C [25]: 78.4% | viability, T/C [26]: 72.6% | viability, T/C [27]: 81% | viability, T/C [28]: 79.4% | viability, T/C [29]: 73.5% | viability, T/C [30]: 70.8% | viability, T/C [31]: 69.4% | viability, T/C [32]: 70.9% | viability, T/C [33]: 66.6% | viability, T/C [34]: 68.4% | viability, T/C [35]: 66.8% | viability, T/C [36]: 68.7% | viability, T/C [37]: 66.5% | viability, T/C [38]: 67.6% | viability, T/C [39]: 70.1% | viability, T/C [40]: 67.3% | viability, T/C [41]: 68.9% | viability, T/C [42]: 58.6%

NC(=O)C(=Cn1cnc(-c2cc(C(F)(F)F)cc(C(F)(F)F)c2)n1)c1cncnc1 + CNC(=O)c1ccc(Nc2nc(OC3CCCC3)c3c(-c4ccc5nc(C)oc5c4)c[nH]c3n2)c(OC)c1
pIC50 [1]: < 5.52 | pIC50 [2]: < 5.52 | pIC50 [3]: < 5.52 | pIC50 [4]: < 5.52 | pIC50 [5]: < 5.52 | pIC50 [6]: 5.59 | viability, T/C [9]: 95% | viability, T/C [10]: 130% | viability, T/C [11]: 179% | viability, T/C [12]: 195% | viability, T/C (second compound 0.0316 µM, first compound 0.949 µM): 176% | viability, T/C (second compound 0.0316 µM, first compound 3 µM): 128% | viability, T/C [15]: 96.4% | viability, T/C [16]: 108% | viability, T/C [17]: 173% | viability, T/C [18]: 177% | viability, T/C (second compound 0.1 µM, first compound 0.949 µM): 171% | viability, T/C (second compound 0.1 µM, first compound 3 µM): 97.5% | viability, T/C [21]: 98.1% | viability, T/C [22]: 116% | viability, T/C [23]: 160% | viability, T/C [24]: 154% | viability, T/C (second compound 0.316 µM, first compound 0.949 µM): 139% | viability, T/C (second compound 0.316 µM, first compound 3 µM): 74.3% | viability, T/C [27]: 82.2% | viability, T/C [28]: 114% | viability, T/C [29]: 141% | viability, T/C [30]: 132% | viability, T/C (second compound 1 µM, first compound 0.949 µM): 99.4% | viability, T/C (second compound 1 µM, first compound 3 µM): 62.5% | viability, T/C [33]: 80.3% | viability, T/C [34]: 114% | viability, T/C [35]: 123% | viability, T/C [36]: 113% | viability, T/C (second compound 3.16 µM, first compound 0.949 µM): 87.6% | viability, T/C (second compound 3.16 µM, first compound 3 µM): 59.3% | viability, T/C [39]: 69.4% | viability, T/C [40]: 98.3% | viability, T/C [41]: 124% | viability, T/C [42]: 98.5% | viability, T/C (second compound 10 µM, first compound 0.949 µM): 80.8% | viability, T/C (second compound 10 µM, first compound 3 µM): 45.4%

CCc1c2c(nc3ccc(O)cc13)-c1cc3c(c(=O)n1C2)COC(=O)[C@]3(O)CC
viability, T/C (compound 0.00316 µM): 46.5% and 55.5% | viability, T/C (compound 0.01 µM): 22.5% and 24.9% | viability, T/C (compound 0.0316 µM): 10.9% and 13.2% | viability, T/C (compound 0.1 µM): 7.63% and 7.75% | viability, T/C (compound 0.316 µM): 7.05% and 6.79% | viability, T/C (compound 1 µM): 14.8% and 15.6% | pIC50 (curve of compound): > 8.50 and 8.42

C=CC(=O)Nc1cc(Nc2nccc(-c3cn(C)c4ccccc34)n2)c(OC)cc1N(C)CCN(C)C + CN1CCN(c2cc(C(=O)Nc3cc4cc(-c5cnn(C)c5)ccc4cn3)ccn2)CC1
pIC50 [1]: < 6.52 | pIC50 [2]: < 6.52 | pIC50 [3]: < 6.52 | pIC50 [4]: > 9.02 | pIC50 [5]: > 9.02 | pIC50 [6]: > 9.02 | viability, T/C [7]: 106% | viability, T/C [8]: 113% | viability, T/C [9]: 99.1% | viability, T/C [10]: 101% | viability, T/C [11]: 103% | viability, T/C [12]: 100% | viability, T/C [13]: 114% | viability, T/C [14]: 113% | viability, T/C [15]: 112% | viability, T/C [16]: 113% | viability, T/C [17]: 105% | viability, T/C [18]: 103% | viability, T/C [19]: 75.7% | viability, T/C [20]: 83.8% | viability, T/C [21]: 84.6% | viability, T/C [22]: 85.3% | viability, T/C [23]: 82.7% | viability, T/C [24]: 74.2% | viability, T/C [25]: 1.06% | viability, T/C [26]: 1.02% | viability, T/C [27]: 0.96% | viability, T/C [28]: 0.9% | viability, T/C [29]: 1.6% | viability, T/C [30]: 0.54% | viability, T/C [31]: 1.42% | viability, T/C [32]: 2.3% | viability, T/C [33]: 1.16% | viability, T/C [34]: 2.05% | viability, T/C [35]: 2.29% | viability, T/C [36]: 2.5% | viability, T/C [37]: 1.61% | viability, T/C [38]: 3.07% | viability, T/C [39]: 1.3% | viability, T/C [40]: 1.38% | viability, T/C [41]: 2.42% | viability, T/C [42]: 2.16%

C=C(F)C(=O)N1CCN(c2nc(OCC3CCCN3C)nc3c2CCN(c2cccc4cccc(Cl)c24)C3)CC1CC#N (configuration not stated)
viability, T/C (compound 0.0316 µM): 94.9% and 103% | viability, T/C (compound 0.1 µM): 97% and 106% | viability, T/C (compound 0.316 µM): 95.6% and 100% | viability, T/C (compound 1 µM): 106% and 105% | viability, T/C (compound 3.16 µM): 121% and 113% | viability, T/C (compound 10 µM): 104% and 126% | pIC50 (curve of compound): < 5.00
